Results published in patent US20250205186A1, “USE OF CHLOROGENIC ACID IN PREPARING MEDICINE OR PHARMACEUTICAL COMPOSITION FOR PREVENTING OR TREATING PAIN” (SICHUAN JIUZHANG BIOLOGICAL SCIENCE AND TECHNOLOGY CO., LTD., priority 2019, published 2025).

What was measured:
Assay type in all cases: in vivo, rat
IL-1β = assay: Serum IL-1β content by ELISA in bone cancer pain rats; settings: for Cytokines IL-1β content in serum: after 15 days of administration; for Serum level of IL-1β compared with the model-negative group: after 15 days
Procedure: (§1) 60 SD rats were randomly selected, and after anesthesia, a small 1 cm incision was made in the upper tibial skin. A 10 mL syringe needle was used to puncture and perforate, then a 10 μL syringe was inserted into the bone marrow cavity, and 3 μL cell suspension containing 3×10^3 Walker rat breast cancer cells was slowly injected. The pinhole was sealed with bone wax, and the skin was sutured. After surgery, the rats were placed on a 37° C. hot plate for rewarming. After recovery, rats were returned to the cage for further breeding, to obtain the model group. In addition, 8 SD rats were randomly selected, and an equal volume of PBS solution was injected into the marrow cavity of the left upper tibia. The rest of the operations were the same as the model group, to obtain the sham operation group. The rats that had been successfully modeled were randomly divided into groups, eight rats for each group, that included high-dose chlorogenic acid group (80 mg/kg), middle-dose chlorogenic acid group (40 mg/kg), low-dose chlorogenic acid group (20 mg/kg), model negative group (N.S normal saline), and sham operation group (N.S normal saline). The rats were intraperitoneally injected with drugs for 15 days in a volume of 0.2 mL/10 g, once a day; the model-negative group and the sham operation group were given the same volume of normal saline. After the last administration, blood was collected from the eyeballs of the rats, and the animals in each group were sacrificed by neck removal. The blood samples were allowed to stand at room temperature for 20 minutes and then centrifuged. The supernatant was collected and the contents of TNF-α, IL-1β, and IL-6 in the peripheral blood serum of the […] were determined by ELISA.

NE = NE content in brain tissue by HPLC-EC in bone cancer pain rats; settings: for NE content in the brain tissue: after 15 days of administration
Procedure: (§2) 60 SD rats were randomly selected, and after anesthesia, a small 1 cm incision was made in the upper tibial skin. A 10 mL syringe needle was used to puncture and perforate, then a 10 μL syringe was inserted into the bone marrow cavity, and 3 μL cell suspension containing […] Walker rat breast cancer cells was slowly injected. The pinhole was sealed with bone wax, and the skin was sutured. After surgery, the rats were placed on a 37° C. hot plate for rewarming. After recovery, rats were returned to the cage for further breeding, to obtain the model group. In addition, 8 SD rats were randomly selected, and an equal volume of PBS solution was injected into the marrow cavity of the left upper tibia. The rest of the operations were the same as the model group, to obtain the sham operation group. The rats that had been successfully modeled were randomly divided into groups, eight rats for each group, that included high-dose chlorogenic acid group (80 mg/kg), middle-dose chlorogenic acid group (40 mg/kg), low-dose chlorogenic acid group (20 mg/kg), model negative group (N.S normal saline), and sham operation group (N.S normal saline). The rats were intraperitoneally injected with drugs for 15 days in a volume of 0.2 mL/10 g, once a day; the model-negative group and the sham operation group were given the same volume of normal saline. After the rats were sacrificed, the hypothalamus was quickly separated, homogenized in an ice bath with perchloric acid, and centrifuged. The supernatant was collected, and the contents of NE, DA, and 5-HT were determined by HPLC-EC method (Hou […], Wang Na, et al, Effects of progesterone on morphine-induced conditioned place preference and levels of monoamine transmitters in rat brain. Chinese Journal of Pharmacology, 2006, 22(8), 980-983).

5-HT = 5-HT content in brain tissue by HPLC-EC in bone cancer pain rats; settings: for 5-HT content in the brain tissue: after 15 days of administration
Procedure: as §2

IL-6 = assay: Serum IL-6 content by ELISA in bone cancer pain rats; settings: for Cytokines IL-6 content in serum: after 15 days of administration; for Serum level of IL-6 compared with the model-negative group: after 15 days
Procedure: as §1

O=C(/C=C/c1ccc(O)c(O)c1)O[C@@H]1C[C@](O)(C(=O)O)C[C@@H](O)[C@H]1O [Chlorogenic acid]
Cytokines IL-1β content in serum (IL-1β; 20 mg/kg ip once a day): 58.54 ± 8.23 ng/L | Serum level of IL-1β compared with the model-negative group (IL-1β; 20 mg/kg, p<0.05): lower than those in the model-negative group | Cytokines IL-1β content in serum (IL-1β; 40 mg/kg ip once a day): 52.71 ± 6.39 ng/L | Serum level of IL-1β compared with the model-negative group (IL-1β; 40 mg/kg, p<0.05): lower than those in the model-negative group | Cytokines IL-1β content in serum (IL-1β; 80 mg/kg ip once a day): 76.25 ± 4.62 ng/L | Serum level of IL-1β compared with the model-negative group (IL-1β; 80 mg/kg): the difference was not significant | NE content in the brain tissue (NE; 20 mg/kg ip once a day): 0.99 ± 0.18 nmol/g | NE content in brain tissue compared with the model-negative group (NE; 20 mg/kg, p<0.05): the difference was significant | NE content in the brain tissue (NE; 40 mg/kg ip once a day): 0.91 ± 0.15 nmol/g | NE content in brain tissue compared with the model-negative group (NE; 40 mg/kg, p<0.05): the difference was significant | NE content in the brain tissue (NE; 80 mg/kg ip once a day): 1.47 ± 0.26 nmol/g | NE content in brain tissue compared with the model-negative group (NE; 80 mg/kg, p>0.05): no significant difference | 5-HT content in the brain tissue (5-HT; 20 mg/kg ip once a day): 0.91 ± 0.15 nmol/g | 5-HT content in brain tissue compared with the model-negative group (5-HT; 20 mg/kg, p<0.05): the difference was significant | 5-HT content in the brain tissue (5-HT; 40 mg/kg ip once a day): 0.95 ± 0.19 nmol/g | 5-HT content in brain tissue compared with the model-negative group (5-HT; 40 mg/kg, p<0.05): the difference was significant | 5-HT content in the brain tissue (5-HT; 80 mg/kg ip once a day): 0.77 ± 0.11 nmol/g | 5-HT content in brain tissue compared with the model-negative group (5-HT; 80 mg/kg, p>0.05): no significant difference | Cytokines IL-6 content in serum (IL-6; 20 mg/kg ip once a day): 84.09 ± 5.16 ng/L | Serum level of IL-6 compared with the model-negative group (IL-6; 20 mg/kg, p<0.05): lower than those in the model-negative group | Cytokines IL-6 content in serum (IL-6; 40 mg/kg ip once a day): 78.73 ± 6.39 ng/L | Serum level of IL-6 compared with the model-negative group (IL-6; 40 mg/kg, p<0.05): lower than those in the model-negative group | Cytokines IL-6 content in serum (IL-6; 80 mg/kg ip once a day): 98.82 ± 4.54 ng/L | Serum level of IL-6 compared with the model-negative group (IL-6; 80 mg/kg): the difference was not significant
